In PMC10790228 (Journal of medical virology, 2022):

Columns and labels:
HIV-1 = conditions: cited from earlier work
[1] = target: binding of CPSF6 to CA hexamer; assay: SPR-based competition assay with CPSF6; design: species or system HIV-1; conditions: read-out: IC50 inhibition of CPSF6 binding to CA hexamer
[2] = cited from earlier work
wild-type HIV-2 = assay: Anti-HIV-2 activity in MT-4 cells, MTT method; type: cell-based; conditions: read-out: EC50 HIV-2
[3] = human, microsomes
HIV-1 NL4.3 virus = assay: Single-round infection assay, early and late stage; type: cell-based; conditions: compound at 1 μM, average of 3 replicates
HIV-1 CA hexamer = conditions: read-out: KD Hexamer; SPR, average of at least 3 replicates
[4] = Metabolic stability in human liver microsomes; conditions: HLM, 0.5 mg protein/mL; for Remaining (NCF = 60min): no co-factor (no NADPH)

SMILES | anti-HIV-1 activity (HIV-1) | CC50 (MT-4 cells) [nM] | IC50 [1] [nM] | metabolic stability T1/2 [2] [s] | EC50 (wild-type HIV-2) [nM] | CLint(mic) [3] [µL/min/mg] | Infection (%) Early-stage (HIV-1 NL4.3 virus) [%] | Infection (%) Late-stage (HIV-1 NL4.3 virus) [%] | Kd (HIV-1 CA hexamer) [nM] | EC50 (HIV-1; read-out: anti-HIV-1 potency EC50) [nM] | T1/2 [4] [s] | Remaining (T = 60min) [4] [%] | Remaining (NCF = 60min) [4] [%] | CLint(liver) ([4]; scaled from CLint(mic)) [mL/min/kg]
CC(C)(C#Cc1ccc(-c2ccc(Cl)c3c(NS(C)(=O)=O)nn(CC(F)(F)F)c23)c([C@H](Cc2cc(F)cc(F)c2)NC(=O)Cn2nc(C(F)(F)F)c3c2C(F)(F)[C@@H]2C[C@H]32)n1)S(C)(=O)=O [GS-6207] | picomolar | – | – | – | – | – | – | – | – | – | – | – | – | –
Cc1[nH]c2ccccc2c1CC(=O)N[C@@H](Cc1ccccc1)C(=O)N(C)c1ccccc1 [PF-74] | – | > 294000 | 26.6 | 30 to 78 | 3790 ± 390 | 2114.6 | 0.07 ± 0.01 | 58.19 ± 12.54 | 47 ± 0.6 | 520 to 900 | 42 | 0.0 | 106.1 | 1903.1
C[C@]12CC[C@H]3[C@@H](CCC4=CC(=O)CC[C@@]43C)[C@@H]1CC[C@@H]2O [Testosterone] | – | – | – | – | – | – | – | – | – | – | – | 4.8 | 95.8 | –
